The Kd is the free concentration of one partner at which half of the binding sites on the other are occupied at equilibrium, for simple one-to-one binding.

Among the data in ChEMBL document CHEMBL6109091, “Integrated computational and biosensor-based strategies for the discovery of allosteric SMYD3 ligands using diperodon as a starting point” (Bioorg Med Chem, 2025) are Kd values, retold here.

This assay has as its target T1, Histone-lysine N-methyltransferase SMYD3 (Homo sapiens, UniProt Q9H7B4).
T1 sequence (Q9H7B4 whole entry): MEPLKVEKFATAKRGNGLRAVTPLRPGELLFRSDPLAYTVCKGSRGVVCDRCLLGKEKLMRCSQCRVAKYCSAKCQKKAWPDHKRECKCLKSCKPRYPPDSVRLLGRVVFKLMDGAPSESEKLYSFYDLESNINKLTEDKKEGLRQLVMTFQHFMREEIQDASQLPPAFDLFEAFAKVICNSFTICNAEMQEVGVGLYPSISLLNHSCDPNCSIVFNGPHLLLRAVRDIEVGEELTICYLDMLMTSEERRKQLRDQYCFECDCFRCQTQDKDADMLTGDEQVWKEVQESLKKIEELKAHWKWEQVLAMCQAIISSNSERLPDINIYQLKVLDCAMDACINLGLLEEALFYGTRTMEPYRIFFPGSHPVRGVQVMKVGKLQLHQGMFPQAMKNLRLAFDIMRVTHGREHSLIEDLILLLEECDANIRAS
The assay can be described thus: Binding affinity to SMYD3 (unknown origin) assessed as dissociation constant by GCI biosensor based analysis.
With `Cc1cc(NC(=O)CCCNC(=O)c2ccsc2)no1`, the dissociation constant Kd is around 210 µM.

For `Cc1cc(N2CCC(NC(C)c3sccc3C)C2=O)n(C)n1` (stereo unspecified), the Kd was around 3 µM.

As for `Cc1ccsc1C(Cc1ccccc1)NC(=O)Cn1cncn1` (stereo unspecified), the dissociation constant (Kd) is around 130 µM.

Regarding `CCC(C(=O)NC1CCCC1)N(C)Cc1ncc(C)[nH]1` (stereo unspecified), the Kd is around 180 µM.

Turning to `Cc1cccc(C)c1NC(=O)CN1CCCC1c1ccccc1` (stereo unspecified), the Kd is around 0.4 µM.

With `O=CNc1ccccc1` [FORMANILIDE], the Kd is around 80 µM.
